Test results from PubChem BioAssay (NCI).
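Protocol summary: plate cells (96-well), add compound at 5 concentrations, incubate 48 h, interpolate endpoints linearly. GI50: concentration for 50% inhibition of growth. TGI marks complete inhibition of growth.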

Tests used:
Test in all cases: growth of human tumour cells (NCI), 48 h
SN12C renal = system: SN12C renal
SK-MEL-5 melanoma = system: SK-MEL-5 melanoma
DU-145 prostate = system: DU-145 prostate
MOLT-4 leukemia = system: MOLT-4 leukemia
HOP-92 NSCLC = system: HOP-92 NSCLC
SF-295 CNS = system: SF-295 CNS
BT-549 breast = system: BT-549 breast
M14 melanoma = system: M14 melanoma
SK-OV-3 ovarian = system: SK-OV-3 ovarian
SF-539 CNS = system: SF-539 CNS
HCC-2998 colon = system: HCC-2998 colon
SK-MEL-2 melanoma = system: SK-MEL-2 melanoma
PC-3 prostate = system: PC-3 prostate
786-0 renal = system: 786-0 renal
OVCAR-8 ovarian = system: OVCAR-8 ovarian
HS 578T breast = system: HS 578T breast
MDA-MB-435 = system: MDA-MB-435
SF-268 CNS = system: SF-268 CNS
CAKI-1 renal = system: CAKI-1 renal
SNB-75 CNS = system: SNB-75 CNS
NCI/ADR-RES ovarian = system: NCI/ADR-RES ovarian
MCF7 breast = system: MCF7 breast
NCI-H522 lung = system: NCI-H522 lung
NCI-H23 lung = system: NCI-H23 lung
SR leukemia = system: SR leukemia
HCT-15 colon = system: HCT-15 colon
EKVX NSCLC = system: EKVX NSCLC
A498 renal = system: A498 renal
HOP-62 NSCLC = system: HOP-62 NSCLC
RPMI-8226 leukemia = system: RPMI-8226 leukemia
A549 NSCLC = system: A549 NSCLC
IGROV1 ovarian = system: IGROV1 ovarian
RXF 393 renal = system: RXF 393 renal
CCRF-CEM leukemia = system: CCRF-CEM leukemia
HT29 colon = system: HT29 colon
U251 CNS = system: U251 CNS
SK-MEL-28 melanoma = system: SK-MEL-28 melanoma
OVCAR-3 ovarian = system: OVCAR-3 ovarian
OVCAR-4 ovarian = system: OVCAR-4 ovarian
OVCAR-5 ovarian = system: OVCAR-5 ovarian
COLO 205 colon = system: COLO 205 colon
K-562 leukemia = system: K-562 leukemia
KM12 colon = system: KM12 colon
MDA-MB-231 breast = system: MDA-MB-231 breast
NCI-H226 lung = system: NCI-H226 lung
NCI-H460 lung = system: NCI-H460 lung
ACHN renal = system: ACHN renal
UACC-257 melanoma = system: UACC-257 melanoma
SW-620 colon = system: SW-620 colon
UACC-62 melanoma = system: UACC-62 melanoma
LOX IMVI melanoma = system: LOX IMVI melanoma
TK-10 renal = system: TK-10 renal
UO-31 renal = system: UO-31 renal
SNB-19 CNS = system: SNB-19 CNS
MALME-3M melanoma = system: MALME-3M melanoma
HL-60(TB) leukemia = system: HL-60(TB) leukemia

Structure (SMILES): CSc1nc(Nc2cccc(NC(=O)CCl)c2)c(C#N)c(-c2cccc([N+](=O)[O-])c2)n1
- GI50 (SN12C renal): 2.78 µM
- TGI (SN12C renal): 10.3 µM
- GI50 (SK-MEL-5 melanoma): 1.51 µM
- TGI (SK-MEL-5 melanoma): 3.28 µM
- GI50 (DU-145 prostate): 2.25 µM
- TGI (DU-145 prostate): 4.57 µM
- GI50 (MOLT-4 leukemia): 1.32 µM
- TGI (MOLT-4 leukemia): 6.37 µM
- GI50 (HOP-92 NSCLC): 1.92 µM
- TGI (HOP-92 NSCLC): 7.07 µM
- GI50 (SF-295 CNS): 9.83 µM
- TGI (SF-295 CNS): 36.4 µM
- GI50 (BT-549 breast): 1.79 µM
- TGI (BT-549 breast): 5.68 µM
- GI50 (M14 melanoma): 2.01 µM
- TGI (M14 melanoma): 6.08 µM
- GI50 (SK-OV-3 ovarian): 4.36 µM
- TGI (SK-OV-3 ovarian): 17.3 µM
- GI50 (SF-539 CNS): 0.216 µM
- TGI (SF-539 CNS): 0.528 µM
- GI50 (HCC-2998 colon): 2.07 µM
- TGI (HCC-2998 colon): 4.37 µM
- GI50 (SK-MEL-2 melanoma): 2.05 µM
- TGI (SK-MEL-2 melanoma): 5.22 µM
- GI50 (PC-3 prostate): 1.61 µM
- TGI (PC-3 prostate): 3.73 µM
- GI50 (786-0 renal): 2.94 µM
- TGI (786-0 renal): 43.7 µM
- GI50 (OVCAR-8 ovarian): 2.39 µM
- TGI (OVCAR-8 ovarian): 9.37 µM
- GI50 (HS 578T breast): 3.21 µM
- TGI (HS 578T breast): 30.7 µM
- GI50 (MDA-MB-435): 2.15 µM
- TGI (MDA-MB-435): 5.16 µM
- GI50 (SF-268 CNS): 2.24 µM
- TGI (SF-268 CNS): 5.72 µM
- GI50 (CAKI-1 renal): 2.12 µM
- TGI (CAKI-1 renal): 10.4 µM
- GI50 (SNB-75 CNS): 0.682 µM
- TGI (SNB-75 CNS): 4.8 µM
- GI50 (NCI/ADR-RES ovarian): 2.38 µM
- TGI (NCI/ADR-RES ovarian): 7.64 µM
- GI50 (MCF7 breast): 0.74 µM
- TGI (MCF7 breast): 2.44 µM
- GI50 (NCI-H522 lung): 1.68 µM
- TGI (NCI-H522 lung): 5.36 µM
- GI50 (NCI-H23 lung): 1.7 µM
- TGI (NCI-H23 lung): 4.35 µM
- GI50 (SR leukemia): 0.387 µM
- TGI (SR leukemia): > 100 µM
- GI50 (HCT-15 colon): 1.66 µM
- TGI (HCT-15 colon): 4.1 µM
- GI50 (EKVX NSCLC): 3.36 µM
- TGI (EKVX NSCLC): 13.2 µM
- GI50 (A498 renal): 12.4 µM
- TGI (A498 renal): 37.6 µM
- GI50 (HOP-62 NSCLC): 2.55 µM
- TGI (HOP-62 NSCLC): 11.4 µM
- GI50 (RPMI-8226 leukemia): 2.1 µM
- TGI (RPMI-8226 leukemia): 5.6 µM
- GI50 (A549 NSCLC): 16.6 µM
- TGI (A549 NSCLC): 49.7 µM
- GI50 (IGROV1 ovarian): 0.214 µM
- TGI (IGROV1 ovarian): 0.685 µM
- GI50 (RXF 393 renal): 1.54 µM
- TGI (RXF 393 renal): 3.22 µM
- GI50 (CCRF-CEM leukemia): 0.34 µM
- TGI (CCRF-CEM leukemia): > 100 µM
- GI50 (HT29 colon): 2.36 µM
- TGI (HT29 colon): 5.53 µM
- GI50 (U251 CNS): 1.6 µM
- TGI (U251 CNS): 3.13 µM
- GI50 (SK-MEL-28 melanoma): 2.15 µM
- TGI (SK-MEL-28 melanoma): 4.28 µM
- GI50 (OVCAR-3 ovarian): 1.77 µM
- TGI (OVCAR-3 ovarian): 3.24 µM
- GI50 (OVCAR-4 ovarian): 2.06 µM
- TGI (OVCAR-4 ovarian): 6.77 µM
- GI50 (OVCAR-5 ovarian): 2.45 µM
- TGI (OVCAR-5 ovarian): 6.13 µM
- GI50 (COLO 205 colon): 1.82 µM
- TGI (COLO 205 colon): 3.54 µM
- GI50 (K-562 leukemia): 2.28 µM
- TGI (K-562 leukemia): > 100 µM
- GI50 (KM12 colon): 1.93 µM
- TGI (KM12 colon): 3.92 µM
- GI50 (MDA-MB-231 breast): 2.39 µM
- TGI (MDA-MB-231 breast): 10.7 µM
- GI50 (NCI-H226 lung): 2.15 µM
- TGI (NCI-H226 lung): 6.32 µM
- GI50 (NCI-H460 lung): 4.12 µM
- TGI (NCI-H460 lung): 23.2 µM
- GI50 (ACHN renal): 0.534 µM
- TGI (ACHN renal): 1.91 µM
- GI50 (UACC-257 melanoma): 2.18 µM
- TGI (UACC-257 melanoma): 5.2 µM
- GI50 (SW-620 colon): 1.93 µM
- TGI (SW-620 colon): 5.11 µM
- GI50 (UACC-62 melanoma): 1.35 µM
- TGI (UACC-62 melanoma): 3.17 µM
- GI50 (LOX IMVI melanoma): 0.0373 µM
- TGI (LOX IMVI melanoma): 0.152 µM
- GI50 (TK-10 renal): 4.2 µM
- TGI (TK-10 renal): 10.9 µM
- GI50 (UO-31 renal): 1.62 µM
- TGI (UO-31 renal): 5.73 µM
- GI50 (SNB-19 CNS): 2.06 µM
- TGI (SNB-19 CNS): 4.78 µM
- GI50 (MALME-3M melanoma): 0.191 µM
- TGI (MALME-3M melanoma): 0.635 µM
- GI50 (HL-60(TB) leukemia): 1.82 µM
- TGI (HL-60(TB) leukemia): 6.48 µM
